Experimental data as given in publication PMC4501687, “Design of a Selective Substrate and Activity Based Probe for Human Neutrophil Serine Protease 4” (PLoS ONE, 2015).
“And” between values parts separate entries of the source, which are not always exact repeats. Equal entries are not always repeated. Where two headings read alike, the source gives them in different places. * marks the point of attachment. ACC = NC(=O)Cc1cc(=O)oc2cc(N*)ccc12; CH2Cl = ClC*

What was measured:
PR3 = target: T1, PR3 (Homo sapiens, UniProt P24158); experiment: Fluorogenic substrate hydrolysis kinetics with PR3; assay type: biochemical
T1 construct: purchased Athens Research Technology, Athens, Georgia, USA
T1 sequence (P24158 28-256): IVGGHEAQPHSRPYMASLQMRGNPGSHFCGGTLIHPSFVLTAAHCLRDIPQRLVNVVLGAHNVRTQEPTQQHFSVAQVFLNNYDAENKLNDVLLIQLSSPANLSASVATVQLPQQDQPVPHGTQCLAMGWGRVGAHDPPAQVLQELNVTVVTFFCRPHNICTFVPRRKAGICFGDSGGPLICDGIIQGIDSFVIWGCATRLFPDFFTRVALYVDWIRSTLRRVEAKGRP
Experimental: (§1) Kinetic parameters of selected substrates were determined in 50 mM Hepes, 0.1 M NaCl, 0.1%TRITON-X100, pH 7.45 assay buffer on 96 wells Corning plates. Measurements were performed for a minimum of 20 minutes. The excitation wavelength was 355 nm, and the emission wavelength was 460 nm, with a cutoff of 455 nm. Human NE and CatG were purchased from Biocentrum, Krakow, Poland and PR3 from Athens Research Technology, Athens, Georgia, USA. Recombinant human NSP4 was expressed and purified as previously described.
(§2) In addition to NSP4, neutrophils contain three other structurally-related serine proteases NE, PR3 and CatG [1] that are also stored in azurophilic granules. To estimate the degree of eventual cross reactivity of the optimal substrate with these three serine proteases, we measured kinetic parameters for each enzyme on PK421. […] In the case of CatG we were unable to saturate the enzyme and therefore could not calculate the individual values of kcat and Km.

NSP4 [1] = target: T2, NSP4 (Homo sapiens, UniProt Q6UWY2); experiment: SDS-PAGE / streptavidin blot labeling of purified NSP4 by probe; assay type: binding; details: 100 nM NSP4 preincubated with inhibitor 30 min 37°C, then PK401 up to 2000 nM for 20 min
T2 construct: made in house
T2 sequence (Q6UWY2 32-283): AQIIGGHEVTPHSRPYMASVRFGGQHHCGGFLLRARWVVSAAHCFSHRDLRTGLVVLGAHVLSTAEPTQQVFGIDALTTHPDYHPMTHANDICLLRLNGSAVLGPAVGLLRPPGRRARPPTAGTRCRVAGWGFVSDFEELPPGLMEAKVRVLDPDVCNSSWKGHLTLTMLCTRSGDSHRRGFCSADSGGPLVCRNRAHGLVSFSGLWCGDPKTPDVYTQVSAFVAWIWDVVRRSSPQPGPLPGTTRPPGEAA
Experimental: 100nM of NSP4 was incubated with competing inhibitor—Ac-IVPR-CMK for 30 minutes at 37°C and then treated with different concentrations of probe—PK401 (2000nM and 1000nM) for 20 minutes at 37°C. Separately, 100nM of NSP4 was incubated with five different concentrations of probe- 2000nM, 1000nM, 100nM, 10nM, and 1 nM for 20 minutes in 37°C. As a control 100nM PK401 was incubated with assay buffer.
Samples were denatured and run in 4–12% SDS PAGE following transfer to nitrocellulose membrane. The membrane was blocked with 1.5% BSA in TBST overnight at 4°C and treated with IRDye800CW Streptavidin (dilution 1:10000 with 1.5% BSA in TBST) for 45 minutes. Then enzyme was visualized using a Li-cor fluorescence imager and Odyssey Molecular Modeling Software.
SDS-page and Western Blot […]
A standard SDS broad spectrum marker (Biorad) was used (Fig. 4A, lane 1). […]
minutes in 37° C (Fig. 4, lanes 4, 5, 6, 7, 8). […] Then enzyme was visualized using a Li-cor fluorescence imager and Odyssey Molecular Modeling Software. […]
The membrane was blocked with 1.5% BSA in TBST overnight at 4° C and treated with IRDye800CW Streptavidin (dilution 1:10000 with 1,5% BSA in TBST) for 45 minutes. Then PK401 was visualized using a Li-cor fluorescence imager and Odyssey Molecular Modeling Software.

NSP4 [2] = target: T2, NSP4; experiment: Fluorogenic substrate hydrolysis kinetics with NSP4; assay type: biochemical
Experimental: as §1
To 20μl of substrates dissolved in assay buffer at known concentration ranges (PK421 and PK431–320–1μM, PK417 and PK418–460–27μM), 80μl of NSP4 (2.9nM), preincubated for 20 minutes at 37°C in buffer, was added. Km, kcat and kcat/Km parameters/constants were calculated using GraphPad Prism and Excel software. Each experiment was repeated three times, and the results are presented as an average +/- S.D.

NE = target: T3, NE (Homo sapiens, UniProt P08246); experiment: Fluorogenic substrate hydrolysis kinetics with NE; assay type: biochemical
T3 construct: purchased Biocentrum, Krakow, Poland
T3 sequence (P08246 30-267): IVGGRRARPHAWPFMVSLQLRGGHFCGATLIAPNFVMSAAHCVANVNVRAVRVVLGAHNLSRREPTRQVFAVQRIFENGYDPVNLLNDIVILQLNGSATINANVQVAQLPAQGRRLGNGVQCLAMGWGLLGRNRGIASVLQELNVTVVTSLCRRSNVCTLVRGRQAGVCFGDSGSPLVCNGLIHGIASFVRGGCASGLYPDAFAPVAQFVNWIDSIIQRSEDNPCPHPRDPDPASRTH
Experimental: as §1, §2

[3] = Table 1, NSP4 2.9 nM preincubated 20 min 37°C, 50 mM Hepes, 0.1 M NaCl, 0.1% TRITON-X100, pH 7.45, ACC fluorescence ex 355/em 460 nm, average ± S.D., minimum of 2 experiments, SD, read-out: Km
[4] = Table 1, NSP4 2.9 nM, Hepes buffer pH 7.45, 37°C, ACC fluorescence, average ± S.D., minimum of 2 experiments, SD
[5] = Table 1 and text, NSP4 2.9 nM, Hepes buffer pH 7.45, 37°C, ACC fluorescence, average ± S.D., minimum of 2 experiments
[6] = Table 2, hydrolysis by NSP4, Hepes buffer pH 7.45

Question: For “Ac-Glu(OBzl)-Lys(Ac)-hPro(OBzl)-Abu-ACC [assay substrate for PR3, reference compound]”, which Km (PR3; Table 3, assay substrate for PR3, read-out: Km of the substrate used for analysis) is on record?
Answer: 13.7 ± 0.67 µM

Question: With Ac-IVPR-CH2Cl [reference compound] as the substance, how does the “Effect of NSP4 active site blocking on PK401 binding” value (NSP4 [1]) read?
Answer: prevented binding

Question: Which Km (NSP4 [2]; [3]) does the source give for “Ac-IVPR-{ACC} (SMILES CC[C@H](C)[C@H](NC(C)=O)C(=O)N[C@H](C(=O)N1CCC[C@H]1C(=O)N[C@@H](CCCNC(=N)N)C(=O)Nc1ccc2c(CC(N)=O)cc(=O)oc2c1)C(C)C) [PK417, fluorogenic NSP4 substrate of natural amino acids]” here?
Answer: 96 ± 16 µM

Question: And the kcat (NSP4 [2]; [4])?
Answer: 0.2 ± 0.02 s⁻¹

Question: And the kcat/Km (NSP4 [2]; [5])?
Answer: 2100 M⁻¹ s⁻¹ and 2100 ± 300 M⁻¹ s⁻¹

Question: For “Ac-Nle(OBzl)-Met(O)2-Oic-Abu-ACC [assay substrate for NE, reference compound]”, which Km (NE; Table 3, assay substrate for NE, read-out: Km of the substrate used for analysis) is on record?
Answer: 0.28 ± 0.08 µM

Question: “Ac-RVPR-{ACC} (SMILES CC(=O)N[C@@H](CCCNC(=N)N)C(=O)N[C@H](C(=O)N1CCC[C@H]1C(=O)N[C@@H](CCCNC(=N)N)C(=O)Nc1ccc2c(CC(N)=O)cc(=O)oc2c1)C(C)C) [PK418, fluorogenic NSP4 substrate of natural amino acids]” was tested. Which Km (NSP4 [2]; [3]) did it give?
Answer: 67 ± 10 µM

Question: What about the kcat (NSP4 [2]; [4]) of the same substance?
Answer: 0.06 ± 0.003 x 10^−3 s^-1

Question: What about the kcat/Km (NSP4 [2]; [5]) of the same substance?
Answer: 960 ± 190 M⁻¹ s⁻¹

Question: Which results are given for “Ac-hCha-Phe(guan)-Oic-Arg-ACC [PK421, optimal fluorogenic NSP4 substrate with unnatural amino acids]”?
Answer: Increase of kcat/Km relative to PK431 (Pro to Oic at P2) (NSP4 [2]; NSP4, PK421 versus PK431): 39%; Fold more efficiently cleaved by NSP4 than PK417 (kcat/Km ratio) (NSP4 [2]; NSP4, versus best substrate of only natural amino acids): around 15 times; Km (NSP4 [2]; [3]): 61 ± 9.1 µM; kcat (NSP4 [2]; [4]): 2.0 ± 0.54 s⁻¹; kcat/Km (NSP4 [2]; [5]): 32000 M⁻¹ s⁻¹ and 32000.0 ± 4500 M⁻¹ s⁻¹; kcat (NSP4 [2]; [6]): 2.0 ± 0.54 s⁻¹; kcat/Km (NSP4 [2]; [6]): 32000 ± 4500 M⁻¹ s⁻¹; Km (NSP4 [2]; Table 2, hydrolysis by NSP4, Hepes buffer pH 7.45, read-out: Km): 61 ± 9.1 µM; kcat/Km (PR3; Table 2, hydrolysis by PR3, NA = no activity detected): Lack of measurable activity; kcat/Km (NE; Table 2, hydrolysis by NE, NA = no activity detected): Lack of measurable activity

Question: What does the source list for “Ac-hCha-Phe(guan)-Pro-Arg-ACC [PK431, fluorogenic NSP4 substrate with unnatural amino acids]”?
Answer: Km (NSP4 [2]; [3]): 53 ± 0.8 µM; kcat (NSP4 [2]; [4]): 1.2 ± 0.017 s⁻¹; kcat/Km (NSP4 [2]; [5]): 23000 ± 11 M⁻¹ s⁻¹; Km (NSP4 [2]; Table 3, assay substrate for NSP4, read-out: Km of the substrate used for analysis): 53 ± 0.8 µM
